This note sets out measurements from patent US20260085068A1, “A NOVEL CRYSTALLINE FORM OF PRITELIVIR” (Assembly Biosciences, Inc., priority 2022, published 2026).

The series is described as follows: Solubility determination in aqueous vehicle (0.9% NaCl and 0.5% polysorbate 80), filtrate analyzed by HPLC. Type of series: physicochemical. The procedure: Sample preparation: excess Type 8 was added to the vehicle containing 0.9% NaCl and 0.5% polysorbate 80 to achieve ˜3 mg/mL suspension. The mixture was sonicated for 15 minutes, then agitated at 500 rpm at room temperature. At 24 hours, the mixture was filtrated, and filtrate was analyzed by HPLC to determine the solubility. • Instrument: Agilent 1260 • Column: ACE ultracore super C18 (100 mm*4.6 mm*2.5 μm) (P/N: CORE-25A-1046U) • Wavelength: 234 nm • Column Temperature: 20° C. • Column Flow: 1.0 mL/min • Acquisition time: 25 min • Injection volume: 5 μL • Retention time: ˜14 min • Mobile Phase A: 5 mM (NH4)2HPO4 and 5 mM of NH4H2PO4 in H2O • Mobile Phase B: ACN [table] The solubility of Form C (hemihydrate as disclosed in WO 2018/096170) was determined in the same media used to determine the solubility of Type 8 as described above. Sample preparation: excess Form C was added to the vehicle containing 0.9% NaCl and 0.5% polysorbate 80. The mixture was sonicated for 15 minutes, then agitated at 500 rpm at room temperature. At 24 hours, the mixture was filtrated, and filtrate was analyzed by HPLC to determine the solubility.

Each structure is given as a SMILES string. In brackets after ≈: the same amount, converted by molar mass.

The solubility is the dissolved amount per volume that the medium holds.

The compound `Cc1nc(N(C)C(=O)Cc2ccc(-c3ccccn3)cc2)sc1S(N)(=O)=O` [Type 8, N-methyl-N-(4-methyl-5-sulfamoylthiazol-2-yl)-2-(4-(pyridin-2-yl)phenyl) acetamide] returned a solubility at 24 h (aqueous vehicle (0.9% NaCl and 0.5% polysorbate 80), aqueous with cosolvent or surfactant or cyclodextrin, thermodynamic from solid, RT, 0.9% NaCl and 0.5% polysorbate 80) of approximately 0.0707 mg/mL (≈ 176 µM). The solubility result (room temperature, aqueous media containing 0.9% NaCl and 0.5% polysorbate 80, at 24 hours) was “around 70.7 μg/mL”.
